Data reported in paper PMC5382265, “Macrocycle peptides delineate locked-open inhibition mechanism for microorganism phosphoglycerate mutases” (Nature Communications, 2017).
Read-outs that look alike come from different tables or passages of the source. Positions of bridges follow the written chain, without caps; N, C: chain ends. Non-standard residues stand in square brackets, D forms with d. Residues, ends and D or L forms follow the SMILES beside them.

Assays:
B. malayi iPGM = B. malayi iPGM (Brugia malayi, UniProt Q4VWF8); experiment: biochemical
B. malayi iPGM, sequence (Q4VWF8 whole entry, looked up): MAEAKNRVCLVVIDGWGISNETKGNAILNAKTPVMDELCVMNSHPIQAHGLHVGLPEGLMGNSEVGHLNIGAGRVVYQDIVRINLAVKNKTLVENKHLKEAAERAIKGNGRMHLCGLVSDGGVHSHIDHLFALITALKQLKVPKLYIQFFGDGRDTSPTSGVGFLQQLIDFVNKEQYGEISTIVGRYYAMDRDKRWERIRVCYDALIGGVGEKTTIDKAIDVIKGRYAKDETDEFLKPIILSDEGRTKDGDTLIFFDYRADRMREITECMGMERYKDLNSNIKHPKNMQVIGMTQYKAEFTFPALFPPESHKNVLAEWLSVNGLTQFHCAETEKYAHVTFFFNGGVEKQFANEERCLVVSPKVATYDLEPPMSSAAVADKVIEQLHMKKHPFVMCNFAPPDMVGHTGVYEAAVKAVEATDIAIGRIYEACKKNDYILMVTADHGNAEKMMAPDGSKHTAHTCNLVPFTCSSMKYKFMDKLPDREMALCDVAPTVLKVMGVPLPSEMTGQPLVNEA

O. volvulus iPGM = O. volvulus iPGM (Onchocerca volvulus, UniProt I6LDA6); experiment: biochemical
O. volvulus iPGM, sequence (I6LDA6 whole entry, looked up): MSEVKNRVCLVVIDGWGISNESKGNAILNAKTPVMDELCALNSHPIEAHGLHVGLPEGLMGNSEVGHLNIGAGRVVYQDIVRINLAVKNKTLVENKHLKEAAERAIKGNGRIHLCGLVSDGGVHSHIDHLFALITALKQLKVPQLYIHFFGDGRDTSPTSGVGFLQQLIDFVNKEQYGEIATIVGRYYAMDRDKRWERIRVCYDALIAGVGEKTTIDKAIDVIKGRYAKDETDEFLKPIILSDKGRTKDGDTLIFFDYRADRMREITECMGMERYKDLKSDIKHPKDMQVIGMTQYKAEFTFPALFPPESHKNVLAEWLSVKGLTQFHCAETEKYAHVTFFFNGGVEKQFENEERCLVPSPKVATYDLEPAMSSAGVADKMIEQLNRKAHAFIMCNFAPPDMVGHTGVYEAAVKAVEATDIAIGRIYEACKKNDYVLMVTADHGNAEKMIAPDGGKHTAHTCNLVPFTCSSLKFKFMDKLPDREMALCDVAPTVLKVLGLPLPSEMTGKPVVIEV

E. coli iPGM = E. coli iPGM (Escherichia coli, UniProt P37689); experiment: biochemical
E. coli iPGM, sequence (P37689 whole entry, looked up): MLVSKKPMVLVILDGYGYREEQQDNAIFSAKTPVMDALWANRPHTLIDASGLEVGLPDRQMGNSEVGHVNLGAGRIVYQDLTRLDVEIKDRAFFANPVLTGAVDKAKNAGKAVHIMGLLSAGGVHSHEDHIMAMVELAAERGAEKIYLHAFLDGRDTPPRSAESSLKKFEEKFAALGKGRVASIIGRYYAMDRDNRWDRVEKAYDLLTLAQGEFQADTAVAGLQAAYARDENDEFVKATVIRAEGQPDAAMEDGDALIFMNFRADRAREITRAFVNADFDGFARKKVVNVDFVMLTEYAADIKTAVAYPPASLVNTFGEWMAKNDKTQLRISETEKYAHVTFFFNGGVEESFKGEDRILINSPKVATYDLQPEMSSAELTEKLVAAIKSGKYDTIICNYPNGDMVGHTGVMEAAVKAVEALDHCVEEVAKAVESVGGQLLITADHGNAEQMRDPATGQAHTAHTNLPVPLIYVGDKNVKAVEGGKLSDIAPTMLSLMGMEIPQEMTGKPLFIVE

C. elegans iPGM = target: T1, C. elegans iPGM (Caenorhabditis elegans, UniProt G5EFZ1); experiment: PGM enzyme-coupled bioluminescent end point assay (Kinase-Glo Plus); type: biochemical
T1 sequence (G5EFZ1 1-539): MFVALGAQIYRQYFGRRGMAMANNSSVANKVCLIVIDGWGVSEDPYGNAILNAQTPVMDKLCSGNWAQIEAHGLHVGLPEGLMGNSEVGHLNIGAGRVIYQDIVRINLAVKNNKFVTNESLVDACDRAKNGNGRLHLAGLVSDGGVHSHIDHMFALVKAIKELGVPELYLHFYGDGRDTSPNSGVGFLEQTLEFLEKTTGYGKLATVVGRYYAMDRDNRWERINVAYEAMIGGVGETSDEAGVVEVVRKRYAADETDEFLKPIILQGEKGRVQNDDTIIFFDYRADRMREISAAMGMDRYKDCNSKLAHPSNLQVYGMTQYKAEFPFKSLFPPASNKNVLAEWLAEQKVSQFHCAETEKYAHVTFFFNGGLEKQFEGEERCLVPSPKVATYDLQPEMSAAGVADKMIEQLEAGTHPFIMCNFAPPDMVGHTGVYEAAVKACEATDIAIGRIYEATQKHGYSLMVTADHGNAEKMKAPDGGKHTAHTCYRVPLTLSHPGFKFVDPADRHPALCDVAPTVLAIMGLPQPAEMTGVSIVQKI

[1] = pIC50, apparent O. volvulus iPGM
[2] = pIC50, apparent C. elegans iPGM

SMILES	IC50 (B. malayi iPGM; pIC50, apparent B. malayi iPGM) [µM]	IC50 (O. volvulus iPGM; [1]) [µM]	IC50 (E. coli iPGM; pIC50, apparent E. coli iPGM) [µM]	IC50 (C. elegans iPGM; [2]) [µM]	IC50 (O. volvulus iPGM; pIC50, M O. volvulus iPGM) [µM]	IC50 (E. coli iPGM; pIC50 E. coli iPGM) [µM]	IC50 (C. elegans iPGM; pIC50 C. elegans iPGM) [µM]	further results
CC[C@H](C)[C@@H]1NC(=O)[C@H](CCC(=O)O)NC(=O)[C@@H]2CCCN2C(=O)[C@H](C)NC(=O)[C@H](CC(N)=O)NC(=O)[C@@H]2CCCN2C(=O)[C@H](Cc2c[nH]c3ccccc23)NC(=O)[C@H](CO)NC(=O)[C@@H](Cc2ccc(O)cc2)NC(=O)CSC[C@@H](C(=O)N[C@@H](CS)C(=O)NCC(N)=O)NC(=O)[C@H](CCCCN)NC(=O)[C@H](Cc2c[nH]c3ccccc23)NC1=O [Bm-1] ({CH2CO}-[dY]SWPNAPEIWKCCG-NH2; thioether N-12)	1.29	1.32	4.9	5.01	–	–	–	–
CC[C@H](C)[C@@H]1NC(=O)[C@H](CO)NC(=O)[C@H](CCCNC(=N)N)NC(=O)[C@H](CC(N)=O)NC(=O)[C@H](CCC(N)=O)NC(=O)[C@@H](Cc2ccc(O)cc2)NC(=O)CSC[C@@H](C(=O)NCC(N)=O)NC(=O)[C@H](CS)NC(=O)CNC(=O)[C@H](Cc2ccc(O)cc2)NC(=O)[C@H](CC(C)C)NC(=O)[C@H](Cc2c[nH]c3ccccc23)NC1=O [Bm-3] ({CH2CO}-[dY]QNRSIWLYGCCG-NH2; thioether N-12)	–	–	–	–	–	–	–	pIC50, apparent E. coli iPGM (E. coli iPGM): 5.03; pIC50, apparent C. elegans iPGM (C. elegans iPGM): 5.05
CC(C)C[C@@H]1NC(=O)[C@@H](Cc2ccc(O)cc2)NC(=O)CSC[C@@H](C(=O)N[C@@H](CC(N)=O)C(=O)N[C@H](C(=O)N[C@@H](CS)C(=O)NCC(N)=O)[C@@H](C)O)NC(=O)[C@H](CC(N)=O)NC(=O)[C@@H]2CCCN2C(=O)[C@H](Cc2c[nH]c3ccccc23)NC(=O)[C@H](CCC(=O)O)NC1=O [Bm-4] ({CH2CO}-[dY]LEWPNCNTCG-NH2; thioether N-7)	0.575	0.794	2.75	2.45	–	–	–	–
CC(C)C[C@@H]1NC(=O)[C@@H](Cc2ccc(O)cc2)NC(=O)CSC[C@@H](C(=O)N[C@@H](CO)C(=O)N[C@H](C(=O)N[C@@H](CS)C(=O)NCC(N)=O)[C@@H](C)O)NC(=O)[C@H](CC(N)=O)NC(=O)[C@@H]2CCCN2C(=O)[C@H](Cc2c[nH]c3ccccc23)NC(=O)[C@H](CC(=O)O)NC1=O [Bm-5] ({CH2CO}-[dY]LDWPNCSTCG-NH2; thioether N-7)	0.692	1.02	2.88	2.51	–	–	–	–
C[C@@H](O)[C@H](NC(=O)[C@H](CO)NC(=O)[C@@H]1CSCC(=O)N[C@H](Cc2ccc(O)cc2)C(=O)N2CCC[C@H]2C(=O)N[C@@H](CCC(=O)O)C(=O)N[C@@H](Cc2c[nH]c3ccccc23)C(=O)N2CCC[C@H]2C(=O)N[C@@H](CC(N)=O)C(=O)N1)C(=O)N[C@@H](CS)C(=O)NCC(N)=O [Bm-6] ({CH2CO}-[dY]PEWPNCSTCG-NH2; thioether N-7)	0.692	0.832	2.82	2.63	–	–	–	–
CC(C)[C@@H]1NC(=O)[C@H](C)NC(=O)[C@@H](Cc2ccc(O)cc2)NC(=O)CSC[C@@H](C(=O)N[C@@H](CCCNC(=N)N)C(=O)N[C@H](C(=O)N[C@@H](CS)C(=O)NCC(N)=O)[C@@H](C)O)NC(=O)[C@H](CC(N)=O)NC(=O)[C@@H]2CCCN2C(=O)[C@H](Cc2c[nH]c3ccccc23)NC1=O [Bm-7] ({CH2CO}-[dY]AVWPNCRTCG-NH2; thioether N-7)	5.25	4.27	7.59	7.41	–	–	–	–
CC(C)C[C@H](NC(=O)[C@H](Cc1ccc(O)cc1)NC(=O)[C@@H]1CSCC(=O)N[C@H](Cc2ccc(O)cc2)C(=O)N[C@@H](CC(=O)O)C(=O)N[C@@H](Cc2ccc(O)cc2)C(=O)N2CCC[C@H]2C(=O)NCC(=O)N[C@@H](CC(=O)O)C(=O)N[C@@H](Cc2c[nH]cn2)C(=O)N1)C(=O)N[C@@H](Cc1ccc(O)cc1)C(=O)NCC(=O)N[C@H](C(=O)N[C@@H](CS)C(=O)NCC(N)=O)[C@@H](C)O [Ce-1]	0.012	–	0.00417	0.00398	0.0245	–	–	–
CC(C)C[C@H](NC(=O)[C@H](Cc1ccc(O)cc1)NC(=O)[C@@H]1CSCC(=O)N[C@H](Cc2ccc(O)cc2)C(=O)N[C@@H](CC(=O)O)C(=O)N[C@@H](Cc2ccc(O)cc2)C(=O)N2CCC[C@H]2C(=O)NCC(=O)N[C@@H](CC(=O)O)C(=O)N[C@@H](Cc2ccc(O)cc2)C(=O)N1)C(=O)N[C@@H](Cc1ccc(O)cc1)C(=O)NCC(=O)N[C@H](C(=O)N[C@@H](CO)C(=O)NCC(N)=O)[C@@H](C)O [Ce-2S]	–	–	–	–	0.447	0.01	0.00832	IC50 (B. malayi iPGM; pIC50, M B. malayi iPGM): 0.407 µM; IC50 (B. malayi iPGM; pIC50 B. malayi iPGM): 0.525 µM; IC50 (O. volvulus iPGM; pIC50 O. volvulus iPGM): 1.02 µM; IC50 (E. coli iPGM; IC50): ~0.01 µM; IC50 (C. elegans iPGM): ~0.01 µM; IC50 (C. elegans iPGM; pIC50, M C. elegans iPGM): 0.012 µM
CC(C)C[C@H](NC(=O)[C@H](Cc1ccc(O)cc1)NC(=O)[C@@H]1CSCC(=O)N[C@H](Cc2ccc(O)cc2)C(=O)N[C@@H](CC(=O)O)C(=O)N[C@@H](Cc2ccc(O)cc2)C(=O)N2CCC[C@H]2C(=O)NCC(=O)N[C@@H](CC(=O)O)C(=O)N[C@@H](Cc2ccc(O)cc2)C(=O)N1)C(=O)N[C@@H](Cc1ccc(O)cc1)C(=O)NCC(=O)N[C@H](C(=O)N[C@@H](CS)C(N)=O)[C@@H](C)O [Ce-2a]	–	–	–	–	0.049	0.000263	0.000174	IC50 (B. malayi iPGM; pIC50, M B. malayi iPGM): 0.00851 µM; IC50 (B. malayi iPGM; pIC50 B. malayi iPGM): 0.000324 µM; IC50 (O. volvulus iPGM; pIC50 O. volvulus iPGM): 0.000209 µM; IC50 (E. coli iPGM; pIC50, M E. coli iPGM): 0.00309 µM; IC50 (C. elegans iPGM; pIC50, M C. elegans iPGM): 0.00407 µM
NC(=O)[C@H](Cc1ccc(O)cc1)NC(=O)[C@@H]1CSCC(=O)N[C@H](Cc2ccc(O)cc2)C(=O)N[C@@H](CC(=O)O)C(=O)N[C@@H](Cc2ccc(O)cc2)C(=O)N2CCC[C@H]2C(=O)NCC(=O)N[C@@H](CC(=O)O)C(=O)N[C@@H](Cc2ccc(O)cc2)C(=O)N1 [Ce-2f] ({CH2CO}-[dY]DYPGDYCY-NH2; thioether N-8)	–	–	–	–	–	25.7	51.3	–
CC[C@H](C)[C@@H]1NC(=O)[C@H](CCCNC(=N)N)NC(=O)[C@H](Cc2ccccc2)NC(=O)[C@@H]2CCCN2C(=O)[C@H](CC(N)=O)NC(=O)[C@H](C)NC(=O)[C@H](CC(C)C)NC(=O)[C@H]([C@@H](C)O)NC(=O)[C@H]([C@@H](C)CC)NC(=O)[C@H](Cc2ccc(O)cc2)NC(=O)CSC[C@@H](C(=O)NCC(N)=O)NC(=O)[C@H](Cc2c[nH]cn2)NC(=O)[C@H](CC(C)C)NC1=O [Ce-3] ({CH2CO}-YITLANPFRILHCG-NH2; thioether N-13)	–	–	0.537	–	5.5	–	–	IC50 (C. elegans iPGM): 0.468 µM
CC[C@H](C)[C@@H]1NC(=O)[C@H](CCCNC(=N)N)NC(=O)[C@H](Cc2ccccc2)NC(=O)[C@@H]2CCCN2C(=O)[C@H](CC(N)=O)NC(=O)[C@H](C)NC(=O)[C@H](CC(C)C)NC(=O)[C@H]([C@@H](C)O)NC(=O)[C@H]([C@@H](C)O)NC(=O)[C@H](Cc2ccc(O)cc2)NC(=O)CSC[C@@H](C(=O)NCC(N)=O)NC(=O)[C@H](Cc2c[nH]cn2)NC(=O)[C@H](CC(C)C)NC1=O [Ce-4] ({CH2CO}-YTTLANPFRILHCG-NH2; thioether N-13)	–	–	–	–	4.27	–	–	IC50 (C. elegans iPGM): 6.03 µM
CC(=O)N[C@H](Cc1ccc(O)cc1)C(=O)N[C@@H](CC(=O)O)C(=O)N[C@@H](Cc1ccc(O)cc1)C(=O)N1CCC[C@H]1C(=O)NCC(=O)N[C@@H](CC(=O)O)C(=O)N[C@@H](Cc1ccc(O)cc1)C(=O)N[C@@H](CO)C(=O)N[C@@H](Cc1ccc(O)cc1)C(=O)N[C@@H](CC(C)C)C(=O)N[C@@H](Cc1ccc(O)cc1)C(=O)NCC(=O)N[C@H](C(=O)N[C@@H](CS)C(=O)NCC(N)=O)[C@@H](C)O [Ce-L2] (Ac-[dY]DYPGDYSYLYGTCG-NH2)	–	–	–	–	–	1.32	1.15	IC50 (B. malayi iPGM; pIC50 B. malayi iPGM): 12.9 µM
